Converted amounts (≈) assume the structure as drawn.
What was measured:
[1] = Cytotoxicity against human 9KB cells; type: functional; conditions: read-out: ED50 (the source's name)
[2] = Cytotoxicity against mouse 9PS cells; type: functional; conditions: read-out: ED50 (the source's name)
[3] = system: Artemia; test: Toxicity in brine shrimp; type: organism-based; conditions: in vivo

## C=Cc1cc(OC)c(OC)cc1OC
[1]
  EC50: 42 µg/mL (≈ 216 µM)
[2]
  EC50: 27 µg/mL (≈ 139 µM)
[3]
  LC50: 8 ppm

Source: ChEMBL document CHEMBL1150755, “2,4,5-trimethoxystyrene, a bioactive component of the bark of Duguetia panamensis” (J Nat Prod, 1988)
